Measured values published in patent US12540120B2, “Herbicidal compounds” (SYNGENTA CROP PROTECTION AG, priority 2019, dated 2026).

Assays:
Format in all cases: in vivo
[1] = system: Amaranthus retoflexus (AMARE); assay: B2 Post-Emergence Efficacy—Test 2; conditions: post-emergence application, 250 g/ha, evaluated after 13 days (Test 2)
Method in brief: (§1)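 Pot-grown plants, sown in standard soil and raised 8 days in a glasshouse (24/16 °C day/night, 14 h light, 65% humidity), were sprayed post-emergence at 250 g/ha from acetone/water (50:50) with 0.5% Tween 20. Percentage damage was scored 13 days later on a five-point scale (5=80-100%; 1=0-19%).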

[2] = system: Echinochloa crus-galli (ECHCG); assay: B2 Post-Emergence Efficacy—Test 2; conditions: post-emergence application, 250 g/ha, evaluated after 13 days (Test 2)
Method in brief: as §1

[3] = system: Ipomoea hederacea (IPOHE); assay: B2 Post-Emergence Efficacy—Test 2; conditions: post-emergence application, 250 g/ha, evaluated after 13 days (Test 2)
Method in brief: as §1

Lolium perenne (LOLPE) [4] = assay: B2 Post-Emergence Efficacy—Test 2; conditions: post-emergence application, 250 g/ha, evaluated after 13 days (Test 2)
Method in brief: as §1

Setaria faberi (SETFA) [5] = assay: B2 Post-Emergence Efficacy—Test 2; conditions: post-emergence application, 250 g/ha, evaluated after 13 days (Test 2)
Method in brief: as §1

Solanum nigrum (SOLNI) [6] = assay: B2 Post-Emergence Efficacy—Test 2; conditions: post-emergence application, 250 g/ha, evaluated after 13 days (Test 2)
Method in brief: as §1

[7] = system: Amaranthus retoflexus (AMARE); assay: B5 Pre-Emergence Efficacy—Test 2; conditions: 250 g/ha, evaluated after 13 days
Method in brief: (§2)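 Scores are percentage plant damage on a five-point scale (5=80-100%; 4=60-79%; 3=40-59%; 2=20-39%; 1=0-19%), taken 13 days after a pre-emergence spray of 250 g/ha. Sowing preceded spraying by one day; glasshouse at 24/16 °C, 65% humidity.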

Solanum nigrum (SOLNI) [8] = assay: B5 Pre-Emergence Efficacy—Test 2; conditions: 250 g/ha, evaluated after 13 days
Method in brief: as §2

[9] = system: Echinochloa crus-galli (ECHCG); assay: B5 Pre-Emergence Efficacy—Test 2; design: key: 5-point scale: 5=80-100%, 4=60-79%, 3=40-59%, 2=20-39%, 1=0-19% damage; conditions: 250 g/ha, evaluated after 13 days
Method in brief: as §2

[10] = system: Ipomoea hederacea (IPOHE); assay: B5 Pre-Emergence Efficacy—Test 2; design: key: 5-point scale: 5=80-100%, 4=60-79%, 3=40-59%, 2=20-39%, 1=0-19% damage; conditions: 250 g/ha, evaluated after 13 days
Method in brief: as §2

Lolium perenne (LOLPE) [11] = assay: B5 Pre-Emergence Efficacy—Test 2; design: key: 5-point scale: 5=80-100%, 4=60-79%, 3=40-59%, 2=20-39%, 1=0-19% damage; conditions: 250 g/ha, evaluated after 13 days
Method in brief: as §2

Setaria faberi (SETFA) [12] = assay: B5 Pre-Emergence Efficacy—Test 2; design: key: 5-point scale: 5=80-100%, 4=60-79%, 3=40-59%, 2=20-39%, 1=0-19% damage; conditions: 250 g/ha, evaluated after 13 days
Method in brief: as §2

SMILES	percentage damage caused to the plant, five point scale, AMARE [1]	percentage damage caused to the plant, five point scale, ECHCG [2]	percentage damage caused to the plant, five point scale, IPOHE [3]	percentage damage caused to the plant, five point scale, LOLPE (Lolium perenne (LOLPE) [4])	percentage damage caused to the plant, five point scale, SETFA (Setaria faberi (SETFA) [5])	percentage damage caused to the plant, five point scale, SOLNI (Solanum nigrum (SOLNI) [6])	Control of weed species after pre-emergence application, AMARE (percentage damage, five point scale) [7]	Control of weed species after pre-emergence application, SOLNI (percentage damage, five point scale) (Solanum nigrum (SOLNI) [8])	Control of weed species after pre-emergence application, ECHCG (percentage damage, five point scale) [9]	Control of weed species after pre-emergence application, IPOHE (percentage damage, five point scale) [10]	Control of weed species after pre-emergence application, LOLPE (percentage damage, five point scale) (Lolium perenne (LOLPE) [11])	Control of weed species after pre-emergence application, SETFA (percentage damage, five point scale) (Setaria faberi (SETFA) [12])
Cc1nn(C)c(=O)c(-c2c(F)ccc(Cl)c2CCc2ccc(-c3cccs3)cc2)c1O [Compound A-1.384]	5 (5=80-100%)	3 (3=40-59%)	5 (5=80-100%)	4 (4=60-79%)	5 (5=80-100%)	5 (5=80-100%)	2 (2=20-39%)	1 (1=0-19%)	0	2 (2=20-39%)	0	0
Cc1nn(C)c(=O)c(-c2c(F)ccc(Cl)c2CCc2ccc(-n3cncn3)cc2)c1O [Compound A-1.385, 4-[3-chloro-6-fluoro-2-[2-[4-(1,2,4-triazol-1-yl)phenyl]ethyl]phenyl]-5-hydroxy-2,6-dimethyl-pyridazin-3-one]	5 (5=80-100%)	5 (5=80-100%)	5 (5=80-100%)	5 (5=80-100%)	5 (5=80-100%)	5 (5=80-100%)	5 (5=80-100%)	5 (5=80-100%)	5 (5=80-100%)	5 (5=80-100%)	5 (5=80-100%)	5 (5=80-100%)
Cc1nn(C)c(=O)c(-c2c(F)ccc(Cl)c2/C=C/c2cccc(C#N)c2)c1O [Compound A-2.030]	3 (3=40-59%)	0	4 (4=60-79%)	1 (1=0-19%)	0	4 (4=60-79%)	0	0	0	0	0	0
Cc1nn(C)c(=O)c(-c2c(F)ccc(Cl)c2/C=C/c2ccc(O)cc2)c1O [Compound A-2.037]	1 (1=0-19%)	2 (2=20-39%)	2 (2=20-39%)	1 (1=0-19%)	1 (1=0-19%)	2 (2=20-39%)	0	0	0	1 (1=0-19%)	1 (1=0-19%)	1 (1=0-19%)
CCN(C)C(=O)c1ccc(CCc2c(Cl)ccc(F)c2-c2c(OC(=O)C(C)C)c(C)nn(C)c2=O)cc1F [Compound A-3.028, [5-[3-Chloro-2-[2-[4-[ethyl(methyl)carbamoyl]-3-fluoro-phenyl]ethyl]-6-fluoro-phenyl]-1,3-dimethyl-6-oxo-pyridazin-4-yl] 2-methylpropanoate]	4 (4=60-79%)	5 (5=80-100%)	5 (5=80-100%)	5 (5=80-100%)	4 (4=60-79%)	5 (5=80-100%)	5 (5=80-100%)	5 (5=80-100%)	5 (5=80-100%)	5 (5=80-100%)	5 (5=80-100%)	5 (5=80-100%)
Cc1nn(C)c(=O)c(-c2c(F)ccc(Cl)c2CCc2ccccc2C#N)c1OC(=O)C(C)C [Compound A-3.029]	4 (4=60-79%)	1 (1=0-19%)	5 (5=80-100%)	2 (2=20-39%)	2 (2=20-39%)	5 (5=80-100%)	4 (4=60-79%)	5 (5=80-100%)	3 (3=40-59%)	3 (3=40-59%)	2 (2=20-39%)	2 (2=20-39%)
Cc1nn(C)c(=O)c(-c2c(F)ccc(Cl)c2CCc2cccc(C#N)c2)c1OC(=O)C(C)C [Compound A-3.030]	5 (5=80-100%)	2 (2=20-39%)	5 (5=80-100%)	4 (4=60-79%)	5 (5=80-100%)	5 (5=80-100%)	5 (5=80-100%)	5 (5=80-100%)	4 (4=60-79%)	3 (3=40-59%)	4 (4=60-79%)	5 (5=80-100%)
